These compounds were tested against Glutamate receptor ionotropic, AMPA (Rattus norvegicus, UniProt P19490+P19491+P19492+P19493) (assay: Inhibition of Ca 2+ Influx in cultured rat cerebellar granule cells, mediated by ionotropic glutamate receptor AMPA).
Format: functional
`O=c1c2cc(F)ccc2nc(/C(O)=C/c2ccccc2F)n1-c1ccccc1Cl` showed an IC50 greater than 30000 nM.
In the case of `O=c1c2cc(F)ccc2nc(COc2ccccc2F)n1-c1ccccc1Cl`, the IC50 is reported as greater than 10000 nM.
`CC(=O)N(Cc1nc2ccc(F)cc2c(=O)n1-c1ccccc1Cl)c1ccccc1F` was tested, and the IC50 was greater than 3000 nM.
With `O=c1c2cc(F)ccc2nc(CNc2ccccc2F)n1-c1ccccc1Cl` the IC50 was 13 nM.
`N#Cc1ccccc1NCc1nc2ccc(F)cc2c(=O)n1-c1ccccc1Cl` showed an IC50 of 42 nM.
In the case of `Cc1cccc(NCc2nc3ccc(F)cc3c(=O)n2-c2ccccc2Cl)c1`, the IC50 is reported as 213 nM.
`CN(Cc1nc2ccc(F)cc2c(=O)n1-c1ccccc1Cl)c1ccccc1F` showed an IC50 of 2000 nM.
`O=c1c2cc(F)ccc2nc(CNCc2ccccc2F)n1-c1ccccc1Cl` showed an IC50 greater than 300 nM.
For `O=c1c2cc(F)ccc2nc(CC(O)c2ccccc2F)n1-c1ccccc1Cl` (stereo in doubt; 3a), the IC50 was 240 nM.
With `O=c1c2cc(F)ccc2nc(CC(O)c2ccccc2F)n1-c1ccccc1Cl` (stereo in doubt; 3b) the IC50 was greater than 3000 nM.
